Here are results for 15 compounds from PubChem BioAssay AID212 (DTP/NCI, 2004).

The test system of this test is BDF1 mice, colon carcinoma 38 sc, T/C %. The test can be described thus: NCI In Vivo Anticancer Drug Screen. Data for tumor model Colon Carcinoma 38 (subcutaneous) in B6D2F1 (BDF1) mice. Particulars: endpoint: median tumor weight (est.), higher = larger tumour. In a few lines:
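Mice with transplanted tumors are treated with compound or vehicle. Survival or tumor size is then measured in both groups. The ratio of treated to control gives the reported figure.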

Where [1] appears, read: dose: 25.0 mg/kg/injection, schedule: Q07DX002 (ip), vehicle: saline with Tween-80.
Where [2] appears, read: dose: 50.0 mg/kg/injection, schedule: Q07DX002 (ip), vehicle: saline with Tween-80.
Where [3] appears, read: dose: 200.0 mg/kg/injection, schedule: Q07DX002 (ip), vehicle: saline with Tween-80.
Setting [4] is: dose: 12.5 mg/kg/injection, schedule: Q07DX002 (ip), vehicle: Klucel (hydroxypropylcellulose) (HPC).
Setting [5] is: dose: 25.0 mg/kg/injection, schedule: Q07DX002 (ip), vehicle: Klucel (hydroxypropylcellulose) (HPC).
Where [6] appears, read: dose: 50.0 mg/kg/injection, schedule: Q07DX002 (ip), vehicle: Klucel (hydroxypropylcellulose) (HPC).
Where [7] appears, read: dose: 100.0 mg/kg/injection, schedule: Q07DX002 (ip), vehicle: Klucel (hydroxypropylcellulose) (HPC).
Setting [8] is: dose: 200.0 mg/kg/injection, schedule: Q07DX002 (ip), vehicle: Klucel (hydroxypropylcellulose) (HPC).
Setting [9] is: dose: 6.25 mg/kg/injection, schedule: Q07DX002 (ip), vehicle: saline with Tween-80.
Setting [10] is: dose: 100.0 mg/kg/injection, schedule: Q07DX002 (ip), vehicle: saline with Tween-80.
Where [11] appears, read: dose: 12.5 mg/kg/injection, schedule: Q07DX002 (ip), vehicle: saline with Tween-80.

The structures appear in SMILES notation. Several values for one entry are separate records, joined by “and”; a condition that tells them apart may be missing. Identical values can stand only once. Records with an inconclusive call do not appear.

Regarding `COc1ccc([I+]c2cccc(Cl)c2)cc1Cl`, the T/C is, setting by setting: (dose: 6.25 mg/kg/injection, schedule: Q07DX003 (ip), vehicle: saline with Tween-80) 54 % of control; (dose: 12.5 mg/kg/injection, schedule: Q07DX003 (ip), vehicle: saline with Tween-80) 78 % of control; (dose: 25.0 mg/kg/injection, schedule: Q07DX003 (ip), vehicle: saline with Tween-80) 100 % of control; (dose: 50.0 mg/kg/injection, schedule: Q07DX003 (ip), vehicle: saline with Tween-80) 111 % of control; (dose: 100.0 mg/kg/injection, schedule: Q07DX003 (ip), vehicle: saline with Tween-80) 105 % of control; (dose: 200.0 mg/kg/injection, schedule: Q07DX003 (ip), vehicle: saline with Tween-80) 72 % of control.

In the case of `O=CN(SSN(C=O)C1CCCCC1)C1CCCCC1`, the T/C was 98 % of control and 99 % of control under setting [1]; 77 % of control and 78 % of control under setting [2]; 113 % of control and 98 % of control under setting [3].

As for `COc1ccc2c(c1)CCC(c1ccccc1)=C2c1ccc(OCCN2CCCC2)cc1`, the T/C is 68 % of control and 85 % of control under setting [4]; 83 % of control and 87 % of control under setting [5]; 70 % of control under setting [6]; 77 % of control and 79 % of control under setting [7]; 100 % of control under setting [8].

Turning to `CC[C@H](CC[C@@H](C)C1CC[C@H]2[C@@H]3CC=C4C[C@@H](OP(=O)(N5CC5)N5CC5)CC[C@]4(C)[C@H]3CC[C@]12C)C(C)C` (some centres undefined), the T/C is 95 % of control under setting [2]; 79 % of control under setting [3]; 92 % of control (dose: 400.0 mg/kg/injection, schedule: Q07DX002 (ip), vehicle: saline with Tween-80).

For the compound `CC1(C)OC(=O)N(CO)C1=O`, the T/C is 162 % of control (dose: 12.5 mg/kg/injection, schedule: Q07DX002 (ip), vehicle: saline); 94 % of control (dose: 25.0 mg/kg/injection, schedule: Q07DX002 (ip), vehicle: saline); 120 % of control and 123 % of control (dose: 50.0 mg/kg/injection, schedule: Q07DX002 (ip), vehicle: saline); 257 % of control (dose: 400.0 mg/kg/injection, schedule: Q07DX002 (ip), vehicle: saline).

`CCCCCCCC(=O)[O][Hg][CH2]C1COC([CH2][Hg][O]C(=O)CCCCCCC)CO1` (centres undefined): the T/C (dose: 3.12 mg/kg/injection, schedule: Q07DX002 (ip), vehicle: saline with Tween-80) was 76 % of control and 97 % of control; the T/C under setting [9] is 101 % of control; the T/C under setting [1] is 108 % of control and 105 % of control; the T/C under setting [10] was 81 % of control.

In the case of `Cc1ccc(C(=O)[O][Hg][CH2]C2COC([CH2][Hg][O]C(=O)c3ccc(C)cc3)CO2)cc1` (centres undefined), the T/C was 186 % of control under setting [5]; 177 % of control and 193 % of control under setting [6]; 154 % of control and 209 % of control under setting [7].

With `COc1cccc2c1C(=O)c1c(O)c3c(c(O)c1C2=O)C[C@@](O)(C(C)=O)C[C@@H]3OC1CC(N)C(O)C(C)O1` (some centres undefined), the T/C (dose: 0.5 mg/kg/injection, schedule: Q07DX002 (ip), vehicle: water) is 75 % of control; the T/C (dose: 0.5 mg/kg/injection, schedule: Q07DX003 (ip), vehicle: saline) was 62 % of control and 76 % of control; the T/C (dose: 1.0 mg/kg/injection, schedule: Q07DX002 (ip), vehicle: water) is 230 % of control; the T/C (dose: 1.0 mg/kg/injection, schedule: Q07DX003 (ip), vehicle: saline) is 55 % of control and 76 % of control; the T/C (dose: 2.0 mg/kg/injection, schedule: Q07DX002 (ip), vehicle: water) was 117 % of control; the T/C (dose: 2.0 mg/kg/injection, schedule: Q07DX003 (ip), vehicle: saline) was 78 % of control and 91 % of control.

Regarding `COc1cccc2c1C(=O)c1c(O)c3c(c(O)c1C2=O)C[C@@](O)(C(=O)CO)C[C@@H]3OC1CC(OC(C)=O)C(OC(C)=O)C(C)O1` (some centres undefined), the T/C reads like this: (dose: 3.12 mg/kg/injection, schedule: Q07DX002 (ip), vehicle: distilled water + Tween-80) 89 % of control; (dose: 6.25 mg/kg/injection, schedule: Q07DX002 (ip), vehicle: distilled water + Tween-80) 88 % of control; (dose: 12.5 mg/kg/injection, schedule: Q07DX002 (ip), vehicle: distilled water + Tween-80) 65 % of control; (dose: 25.0 mg/kg/injection, schedule: Q07DX002 (ip), vehicle: distilled water + Tween-80) 90 % of control; (dose: 50.0 mg/kg/injection, schedule: Q07DX002 (ip), vehicle: distilled water + Tween-80) 62 % of control.

In the case of `CCCCCCCCCCCCCC#CC(=O)O`, the T/C by setting is: under setting [9], 76 % of control; under setting [11], 92 % of control; under setting [1], 75 % of control; under setting [2], 84 % of control.

In the case of `CCN(C)N=Nc1ccc(C(N)=O)cc1`, the T/C is 82 % of control and 84 % of control under setting [4]; 82 % of control and 87 % of control under setting [5]; 56 % of control and 63 % of control and 76 % of control under setting [6]; 61 % of control and 77 % of control and 78 % of control under setting [7].

Turning to `C[C@]12CCC(=O)C(O)=C1CC[C@@H]1[C@@H]2CC[C@]2(C)C(=O)CC[C@@H]12`, the T/C was 82 % of control under setting [5]; 110 % of control and 101 % of control under setting [6]; 176 % of control and 186 % of control under setting [7]; 59 % of control and 84 % of control under setting [8].

In the case of `Nc1ccc2nc3ccc(N)cc3[n+](-c3ccccc3)c2c1`, the T/C by setting is: (dose: 2.0 mg/kg/injection, schedule: Q07DX002 (ip), vehicle: saline) 95 % of control; (dose: 4.0 mg/kg/injection, schedule: Q07DX002 (ip), vehicle: saline) 74 % of control; (dose: 4.0 mg/kg/injection, schedule: Q07DX003 (ip), vehicle: saline) 28 % of control; (dose: 8.0 mg/kg/injection, schedule: Q07DX002 (ip), vehicle: saline) 96 % of control; (dose: 8.0 mg/kg/injection, schedule: Q07DX003 (ip), vehicle: saline) 43 % of control; (dose: 16.0 mg/kg/injection, schedule: Q07DX002 (ip), vehicle: saline) 72 % of control. Moreover, the T/C reads like this: (dose: 16.0 mg/kg/injection, schedule: Q07DX003 (ip), vehicle: saline) 46 % of control; (dose: 32.0 mg/kg/injection, schedule: Q07DX002 (ip), vehicle: saline) 97 % of control; (dose: 32.0 mg/kg/injection, schedule: Q07DX003 (ip), vehicle: saline) 43 % of control.

As for `CCCCCCC/C=C/C(=O)OC1C(OC2C(OC(CCCCCCC)CC(=O)OC(CCCCCCC)CC(=O)O)OC(C)C(O)C2O)OC(C)C(O)C1O` (centres undefined), the T/C by setting is: (dose: 28.0 mg/kg/injection, schedule: Q07DX002 (ip), vehicle: Klucel (hydroxypropylcellulose) (HPC)) 79 % of control; (dose: 112.0 mg/kg/injection, schedule: Q07DX002 (ip), vehicle: Klucel (hydroxypropylcellulose) (HPC)) 123 % of control; (dose: 225.0 mg/kg/injection, schedule: Q07DX002 (ip), vehicle: Klucel (hydroxypropylcellulose) (HPC)) 42 % of control.

As to `Nc1ccc(C(=O)Nc2ccccc2N)cc1`, the T/C is, setting by setting: under setting [11], 121 % of control; (dose: 25.0 mg/kg/injection, schedule: Q01DX007 (ip), vehicle: saline with Tween-80) 160 % of control; (dose: 25.0 mg/kg/injection, schedule: Q01DX007 (oral), vehicle: saline with Tween-80) 58 % of control; under setting [1], 67 % of control; (dose: 50.0 mg/kg/injection, schedule: Q01DX007 (ip), vehicle: saline with Tween-80) 71 % of control; (dose: 50.0 mg/kg/injection, schedule: Q01DX007 (oral), vehicle: saline with Tween-80) 78 % of control. The T/C is, setting by setting: (dose: 100.0 mg/kg/injection, schedule: Q01DX007 (ip), vehicle: saline with Tween-80) 123 % of control; under setting [10], 121 % of control; (dose: 200.0 mg/kg/injection, schedule: Q01DX007 (oral), vehicle: saline with Tween-80) 76 % of control; under setting [3], 84 % of control; (dose: 400.0 mg/kg/injection, schedule: Q01DX007 (oral), vehicle: saline with Tween-80) 105 % of control.
